Assay results: ChEMBL document CHEMBL1139387, “Fragment-based discovery of the pyrazol-4-yl urea (AT9283), a multitargeted kinase inhibitor with potent aurora kinase activity” (J Med Chem, 2009)
Values after ≈ are worked out from the molar mass of the structure shown. Blank lines part the entries; values can stand above or below the compound they belong to.

Assays:
[1] = Plasma concentration in mouse assessed per kg body weight; assay type: ADME, organism-based
[2] = Oral bioavailability in mouse; assay type: ADME, organism-based; details: in vivo
[3] = target: Cyclin-dependent kinase 1/cyclin B1 (Homo sapiens, UniProt P06493); test: Inhibition of CDK1/Cyclin B; assay type: protein-complex assay
Sequence of Cyclin-dependent kinase 1/cyclin B1 (P06493 whole entry): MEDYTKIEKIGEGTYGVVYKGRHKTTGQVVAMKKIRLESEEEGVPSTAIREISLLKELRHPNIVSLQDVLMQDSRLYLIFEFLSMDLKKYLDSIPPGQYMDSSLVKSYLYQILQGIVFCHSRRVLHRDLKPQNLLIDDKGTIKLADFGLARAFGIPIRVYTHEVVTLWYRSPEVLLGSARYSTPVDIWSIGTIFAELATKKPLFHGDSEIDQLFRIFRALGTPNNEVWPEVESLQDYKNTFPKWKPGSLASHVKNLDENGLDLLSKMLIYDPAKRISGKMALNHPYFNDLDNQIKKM
Sequence of Cyclin-dependent kinase 1/cyclin B1 (P14635 whole entry, further chain): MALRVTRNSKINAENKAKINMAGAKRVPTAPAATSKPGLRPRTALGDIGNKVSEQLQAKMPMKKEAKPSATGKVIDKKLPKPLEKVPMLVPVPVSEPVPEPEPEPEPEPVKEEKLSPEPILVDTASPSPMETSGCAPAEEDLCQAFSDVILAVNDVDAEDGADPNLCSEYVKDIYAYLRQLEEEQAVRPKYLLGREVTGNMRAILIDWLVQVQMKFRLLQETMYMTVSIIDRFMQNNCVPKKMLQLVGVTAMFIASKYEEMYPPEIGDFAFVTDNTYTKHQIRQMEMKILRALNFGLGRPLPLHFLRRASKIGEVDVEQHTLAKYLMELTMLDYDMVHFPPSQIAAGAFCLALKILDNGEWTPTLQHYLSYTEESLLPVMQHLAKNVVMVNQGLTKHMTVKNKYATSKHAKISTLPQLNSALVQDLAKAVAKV

in vitro = details: mouse, plasma
Aurora kinase B = Aurora kinase B (Homo sapiens, UniProt Q96GD4); test: Inhibition of Aurora B
Sequence of Aurora kinase B (Q96GD4 whole entry): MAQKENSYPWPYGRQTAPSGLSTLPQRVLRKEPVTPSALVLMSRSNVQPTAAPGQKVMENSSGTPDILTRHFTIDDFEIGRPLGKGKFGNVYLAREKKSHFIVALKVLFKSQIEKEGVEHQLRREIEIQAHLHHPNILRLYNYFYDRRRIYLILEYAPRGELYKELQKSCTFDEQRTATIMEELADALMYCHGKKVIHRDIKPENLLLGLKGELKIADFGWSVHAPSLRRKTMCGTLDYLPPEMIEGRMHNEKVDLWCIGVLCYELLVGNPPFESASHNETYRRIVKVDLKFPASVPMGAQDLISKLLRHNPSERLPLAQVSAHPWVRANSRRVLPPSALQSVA

[4] = target: Cyclin-dependent kinase 2 (Homo sapiens, UniProt P24941); test: Inhibition of CDK2/Cyclin A
HCT-116 [5] = test: Cytotoxicity against human HCT116 cells assessed as distinct polyploidy phenotype after 72 hrs; assay type: functional
Aurora kinase A = target: T1, Aurora kinase A (Homo sapiens, UniProt O14965)
T1 sequence (O14965 whole entry): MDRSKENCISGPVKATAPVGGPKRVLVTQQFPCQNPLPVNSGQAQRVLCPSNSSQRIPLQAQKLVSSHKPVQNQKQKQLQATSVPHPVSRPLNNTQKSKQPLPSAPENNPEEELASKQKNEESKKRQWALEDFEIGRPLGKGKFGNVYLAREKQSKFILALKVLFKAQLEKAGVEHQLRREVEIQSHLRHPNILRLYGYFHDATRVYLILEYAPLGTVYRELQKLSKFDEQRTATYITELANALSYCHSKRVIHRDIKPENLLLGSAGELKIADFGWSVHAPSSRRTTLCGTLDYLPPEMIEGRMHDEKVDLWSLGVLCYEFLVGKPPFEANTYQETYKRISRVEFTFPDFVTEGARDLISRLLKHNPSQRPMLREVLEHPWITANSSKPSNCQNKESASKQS

[6] = target: Cyclin-dependent kinase 1/cyclin B1 (Homo sapiens) (UniProt P06493+P14635); details: 1000 uM
Sequence of Cyclin-dependent kinase 1/cyclin B1 (Homo sapiens) (P06493 whole entry, looked up): as the sequence (P06493 whole entry) above
Sequence of Cyclin-dependent kinase 1/cyclin B1 (Homo sapiens) (P14635 whole entry, looked up): as the sequence (P14635 whole entry, further chain) above

HCT-116 [7] = test: Cytotoxicity against human HCT116 cells assessed as number of colonies after 10 to 14 days by colony forming assay; assay type: functional, cell-based
[8] = Lipophilicity, log D at pH 7.4; assay type: physicochemical; details: buffer
Mus musculus [9] = test: Toxicity in BALB/c mouse bearing human HCT116 cells assessed as body weight at 15 mg/kg, ip relative to starting weight; assay type: organism-based, HCT-116; design: dose 15 mg/kg, route intraperitoneal; details: in vivo
HCT-116 [10] = test: Antitumor activity against human HCT116 cells xenografted in BALB/c mouse at 15 mg/kg, ip after 16 days relative to control; assay type: functional; details: route intraperitoneal
Mus musculus [11] = test: Toxicity in BALB/c mouse bearing human HCT116 cells assessed as body weight at 20 mg/kg, ip relative to starting weight; assay type: organism-based, HCT-116; design: dose 20 mg/kg, route intraperitoneal; details: in vivo
HCT-116 [12] = test: Antitumor activity against human HCT116 cells xenografted in BALB/c mouse at 20 mg/kg, ip after 16 days relative to control; assay type: functional; details: route intraperitoneal
[13] = AUC (0 to t) in BALB/c mouse bearing human HCT116 cells at 5 mg/kg, iv; assay type: ADME, organism-based, HCT-116; design: dose 5 mg/kg, route intravenous; details: in vivo
Cytochrome P450 2C19 = Cytochrome P450 2C19 (Homo sapiens, UniProt P33261); test: Inhibition of CYP2C19; assay type: ADME
Sequence of Cytochrome P450 2C19 (P33261 whole entry): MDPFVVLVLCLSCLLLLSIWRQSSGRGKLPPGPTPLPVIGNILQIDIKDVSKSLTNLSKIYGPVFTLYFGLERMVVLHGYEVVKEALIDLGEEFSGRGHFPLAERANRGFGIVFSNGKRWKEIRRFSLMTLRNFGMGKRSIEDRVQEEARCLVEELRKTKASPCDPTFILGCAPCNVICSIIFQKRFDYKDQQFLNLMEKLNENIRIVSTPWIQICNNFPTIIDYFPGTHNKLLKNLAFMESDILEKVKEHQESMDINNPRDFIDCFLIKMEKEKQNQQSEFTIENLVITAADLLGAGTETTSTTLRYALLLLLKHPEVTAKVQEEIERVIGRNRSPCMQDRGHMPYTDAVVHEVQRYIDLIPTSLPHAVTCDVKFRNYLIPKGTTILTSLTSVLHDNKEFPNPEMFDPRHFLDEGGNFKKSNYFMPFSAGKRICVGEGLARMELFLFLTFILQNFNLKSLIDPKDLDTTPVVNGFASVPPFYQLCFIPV

[14] = Clearance in BALB/c mouse bearing human HCT116 cells at 5 mg/kg, iv; assay type: ADME, organism-based, HCT-116; design: dose 5 mg/kg, route intravenous; details: in vivo, read-out: MLC
[15] = Solubility at pH 5.5; assay type: physicochemical; details: buffer
Cytochrome P450 1A2 = target: T2, Cytochrome P450 1A2 (Homo sapiens, UniProt P05177); test: Inhibition of CYP1A2; assay type: ADME
T2 sequence (P05177 whole entry): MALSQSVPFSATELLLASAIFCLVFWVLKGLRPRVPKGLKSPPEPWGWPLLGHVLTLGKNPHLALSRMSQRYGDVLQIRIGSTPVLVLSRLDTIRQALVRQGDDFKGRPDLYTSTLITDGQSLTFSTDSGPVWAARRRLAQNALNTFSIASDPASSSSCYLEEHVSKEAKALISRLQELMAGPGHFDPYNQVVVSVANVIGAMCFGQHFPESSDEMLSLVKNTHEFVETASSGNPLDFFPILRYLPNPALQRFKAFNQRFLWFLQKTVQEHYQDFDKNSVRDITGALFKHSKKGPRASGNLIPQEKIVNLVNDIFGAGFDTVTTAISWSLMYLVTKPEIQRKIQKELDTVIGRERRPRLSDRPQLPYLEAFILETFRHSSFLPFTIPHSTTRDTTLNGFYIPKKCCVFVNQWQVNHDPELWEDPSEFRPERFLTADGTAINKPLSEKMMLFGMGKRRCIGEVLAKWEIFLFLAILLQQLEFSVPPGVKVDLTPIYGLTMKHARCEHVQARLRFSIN

[16] = Cmax in BALB/c mouse bearing human HCT116 cells at 10 mg/kg, po; assay type: ADME, organism-based, HCT-116; design: dose 10 mg/kg, route oral; details: in vivo
Cytochrome P450 2C9 = Cytochrome P450 2C9 (Homo sapiens, UniProt P11712); test: Inhibition of CYP2C9; assay type: ADME
Sequence of Cytochrome P450 2C9 (P11712 whole entry): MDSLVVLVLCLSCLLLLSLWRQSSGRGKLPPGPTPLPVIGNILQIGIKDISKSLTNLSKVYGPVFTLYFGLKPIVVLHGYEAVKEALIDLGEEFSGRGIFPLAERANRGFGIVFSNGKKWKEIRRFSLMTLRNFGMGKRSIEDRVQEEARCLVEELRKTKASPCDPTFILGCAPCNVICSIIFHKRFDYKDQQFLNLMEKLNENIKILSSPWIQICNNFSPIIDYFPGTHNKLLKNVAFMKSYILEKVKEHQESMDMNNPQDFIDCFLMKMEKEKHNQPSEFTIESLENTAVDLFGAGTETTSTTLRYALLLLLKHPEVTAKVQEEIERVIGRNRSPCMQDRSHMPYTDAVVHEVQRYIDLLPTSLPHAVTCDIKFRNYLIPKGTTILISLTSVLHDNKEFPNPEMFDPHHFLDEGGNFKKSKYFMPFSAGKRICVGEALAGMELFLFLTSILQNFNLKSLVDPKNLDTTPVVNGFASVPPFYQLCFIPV

[17] = target: Tyrosine-protein kinase Yes (Homo sapiens, UniProt P07947); test: Inhibition of Yes
[18] = Solubility at pH 7.0; assay type: physicochemical; details: buffer
[19] = Bioavailability in BALB/c mouse bearing human HCT116 cells at 20 mg/kg, ip; assay type: ADME, organism-based, HCT-116; details: in vivo
[20] = AUC (0 to t) in BALB/c mouse bearing human HCT116 cells at 20 mg/kg, ip; assay type: ADME, organism-based, HCT-116; design: dose 20 mg/kg, route intraperitoneal; details: in vivo
[21] = target: Glycogen synthase kinase-3 beta (Homo sapiens, UniProt P49841); test: Inhibition of GSK3-beta
Sequence of Glycogen synthase kinase-3 beta (P49841 whole entry): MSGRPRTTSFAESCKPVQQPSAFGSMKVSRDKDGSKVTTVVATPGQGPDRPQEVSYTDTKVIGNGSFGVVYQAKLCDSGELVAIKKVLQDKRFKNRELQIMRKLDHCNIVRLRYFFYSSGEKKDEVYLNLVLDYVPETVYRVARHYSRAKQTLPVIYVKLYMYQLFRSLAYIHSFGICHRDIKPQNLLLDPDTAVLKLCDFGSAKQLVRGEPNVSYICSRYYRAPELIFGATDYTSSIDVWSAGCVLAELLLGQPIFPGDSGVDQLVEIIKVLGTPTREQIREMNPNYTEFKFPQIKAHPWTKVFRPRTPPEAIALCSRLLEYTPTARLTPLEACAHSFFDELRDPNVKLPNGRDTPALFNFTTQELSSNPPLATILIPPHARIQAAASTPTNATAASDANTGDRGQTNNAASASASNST

[22] = Volume of distribution at steady state in BALB/c mouse bearing human HCT116 cells at 5 mg/kg, iv; assay type: ADME, organism-based, HCT-116; design: dose 5 mg/kg, route intravenous; details: in vivo, read-out: Vdss
[23] = AUC (0 to t) in BALB/c mouse bearing human HCT116 cells at 10 mg/kg, po; assay type: ADME, organism-based, HCT-116; design: dose 10 mg/kg, route oral; details: in vivo
[24] = Half life in human HCT116 cells xenografted BALB/c mouse tumor at 10 mg/kg, iv; assay type: ADME, organism-based, HCT-116; design: dose 10 mg/kg, route intravenous
[25] = Cmax in BALB/c mouse bearing human HCT116 cells at 5 mg/kg, iv; assay type: ADME, organism-based, HCT-116; design: dose 5 mg/kg, route intravenous; details: in vivo
[26] = Half life in BALB/c mouse plasma bearing human HCT116 cells at 5 mg/kg, iv; assay type: ADME, organism-based, HCT-116; design: dose 5 mg/kg, route intravenous
[27] = target: T3, Serine/threonine-protein kinase 17A (Homo sapiens, UniProt Q9UEE5); test: Inhibition of DRAK1
T3 sequence (Q9UEE5 whole entry): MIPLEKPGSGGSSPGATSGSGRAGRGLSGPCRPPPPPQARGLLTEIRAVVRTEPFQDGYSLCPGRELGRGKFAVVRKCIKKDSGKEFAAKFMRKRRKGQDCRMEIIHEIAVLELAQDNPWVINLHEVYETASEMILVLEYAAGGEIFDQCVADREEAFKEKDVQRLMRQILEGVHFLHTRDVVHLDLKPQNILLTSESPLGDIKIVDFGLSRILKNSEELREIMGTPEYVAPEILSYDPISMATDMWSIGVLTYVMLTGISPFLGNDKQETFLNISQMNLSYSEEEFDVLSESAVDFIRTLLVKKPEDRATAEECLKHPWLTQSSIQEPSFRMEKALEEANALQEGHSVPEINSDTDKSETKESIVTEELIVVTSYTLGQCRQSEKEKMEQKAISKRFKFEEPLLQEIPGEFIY

[28] = Oral bioavailability in BALB/c mouse bearing human HCT116 cells at 10 mg/kg; assay type: ADME, organism-based, HCT-116; details: in vivo
[29] = target: Vascular endothelial growth factor receptor 3 (Homo sapiens, UniProt P35916); test: Inhibition of VEGFR3
Sequence of Vascular endothelial growth factor receptor 3 (P35916 whole entry): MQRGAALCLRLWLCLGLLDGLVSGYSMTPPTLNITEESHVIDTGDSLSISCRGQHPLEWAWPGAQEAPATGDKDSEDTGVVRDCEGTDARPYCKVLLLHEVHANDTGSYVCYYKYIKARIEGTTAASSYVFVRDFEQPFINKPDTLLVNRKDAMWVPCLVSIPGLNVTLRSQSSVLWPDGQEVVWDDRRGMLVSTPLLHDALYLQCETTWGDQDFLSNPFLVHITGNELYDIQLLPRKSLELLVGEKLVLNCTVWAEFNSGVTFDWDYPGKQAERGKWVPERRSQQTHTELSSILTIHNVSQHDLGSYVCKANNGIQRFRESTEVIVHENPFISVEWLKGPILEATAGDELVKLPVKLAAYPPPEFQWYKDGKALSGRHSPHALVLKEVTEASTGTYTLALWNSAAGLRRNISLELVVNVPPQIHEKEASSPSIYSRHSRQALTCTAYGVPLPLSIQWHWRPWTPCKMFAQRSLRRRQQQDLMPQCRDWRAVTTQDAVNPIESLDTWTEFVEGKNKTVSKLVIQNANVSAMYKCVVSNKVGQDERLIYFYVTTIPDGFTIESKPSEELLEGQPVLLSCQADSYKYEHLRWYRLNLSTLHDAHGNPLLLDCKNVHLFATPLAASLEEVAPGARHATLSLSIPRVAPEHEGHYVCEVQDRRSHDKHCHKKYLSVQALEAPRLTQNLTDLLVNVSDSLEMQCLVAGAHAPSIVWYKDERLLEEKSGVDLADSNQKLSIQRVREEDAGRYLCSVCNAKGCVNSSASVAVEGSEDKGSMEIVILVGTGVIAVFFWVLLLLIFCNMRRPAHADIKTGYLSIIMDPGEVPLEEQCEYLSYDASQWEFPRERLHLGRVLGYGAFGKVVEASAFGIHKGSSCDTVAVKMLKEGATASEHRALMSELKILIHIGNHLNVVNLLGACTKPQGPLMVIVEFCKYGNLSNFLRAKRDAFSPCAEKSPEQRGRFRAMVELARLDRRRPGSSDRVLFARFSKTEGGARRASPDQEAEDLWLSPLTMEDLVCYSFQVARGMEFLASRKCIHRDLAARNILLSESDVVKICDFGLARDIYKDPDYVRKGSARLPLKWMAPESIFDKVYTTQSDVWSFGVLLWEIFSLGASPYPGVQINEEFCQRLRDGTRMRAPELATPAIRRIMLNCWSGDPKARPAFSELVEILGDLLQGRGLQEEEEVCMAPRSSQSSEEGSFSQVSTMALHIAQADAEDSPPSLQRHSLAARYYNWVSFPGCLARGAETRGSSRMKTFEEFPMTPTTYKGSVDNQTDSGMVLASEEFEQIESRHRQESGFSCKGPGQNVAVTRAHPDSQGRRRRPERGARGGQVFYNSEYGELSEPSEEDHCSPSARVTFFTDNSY

[30] = Cmax in BALB/c mouse bearing human HCT116 cells at 20 mg/kg, ip; assay type: ADME, organism-based, HCT-116; design: dose 20 mg/kg, route intraperitoneal; details: in vivo
Cytochrome P450 2D6 = Cytochrome P450 2D6 (Homo sapiens, UniProt P10635); test: Inhibition of CYP2D6; assay type: ADME
Sequence of Cytochrome P450 2D6 (P10635 whole entry): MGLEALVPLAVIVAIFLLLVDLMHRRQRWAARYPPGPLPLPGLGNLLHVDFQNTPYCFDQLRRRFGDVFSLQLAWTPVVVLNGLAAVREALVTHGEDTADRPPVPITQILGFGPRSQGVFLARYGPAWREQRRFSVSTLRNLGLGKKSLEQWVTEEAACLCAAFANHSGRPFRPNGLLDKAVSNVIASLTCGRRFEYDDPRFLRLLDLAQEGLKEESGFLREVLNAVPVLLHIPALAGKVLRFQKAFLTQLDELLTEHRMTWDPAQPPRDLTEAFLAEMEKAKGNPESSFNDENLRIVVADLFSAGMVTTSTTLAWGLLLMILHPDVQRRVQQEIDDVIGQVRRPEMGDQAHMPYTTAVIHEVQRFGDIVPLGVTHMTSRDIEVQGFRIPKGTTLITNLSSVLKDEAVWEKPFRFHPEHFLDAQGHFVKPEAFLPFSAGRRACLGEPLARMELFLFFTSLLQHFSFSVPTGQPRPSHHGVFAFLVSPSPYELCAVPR

SMILES: O=C(Nc1c[nH]nc1-c1nc2ccc(CN3CCOCC3)cc2[nH]1)c1ccc(F)cc1
clearance [1]: 43 mL/min/kg
bioavailability [2]: 26%
IC50 [3]: 1500 nM
fraction unbound (in vitro): 0.005
IC50 (Aurora kinase B): 75 nM
IC50 [4]: 530 nM
Activity (HCT-116 [5]): 0.3 µM

SMILES: CC(=O)Nc1c[nH]nc1-c1nc2ccccc2[nH]1
IC50 (Aurora kinase A): 70 nM
IC50 [3]: 3200 nM
IC50 (Aurora kinase B): 510 nM
IC50 [4]: 990 nM

SMILES: c1ccc2[nH]c(-c3cc[nH]n3)nc2c1
inhibition [6]: 49%
IC50 (Aurora kinase B): 6500 nM
IC50 [4]: 28000 nM

SMILES: O=C(Nc1ccccc1)Nc1c[nH]nc1-c1nc2cc(CN3CCOCC3)ccc2[nH]1
IC50 [3]: 5500 nM
fraction unbound (in vitro): 0.047
IC50 (Aurora kinase B): 54 nM
IC50 [4]: 1800 nM
Activity (HCT-116 [5]): 0.3 µM

SMILES: Cl.O=C(Nc1c[nH]nc1-c1nc2cc(CN3CCOCC3)ccc2[nH]1)NC1CC1
Activity (Mus musculus [9]): Non-toxic
T/C (HCT-116 [10]): 33%
Activity (Mus musculus [11]): Non-toxic
T/C (HCT-116 [12]): 24%

SMILES: O=C(Nc1c[nH]nc1-c1nc2ccc(CN3CCOCC3)cc2[nH]1)NC1CC1 [AT-9283]
AUC(0-t) [13]: 1.9 µM·h
IC50 (Cytochrome P450 2C19): > 10000 nM
IC50 (HCT-116 [7]): 12 nM
clearance [14]: 114 mL/min/kg
solubility [15]: 13000 µg/mL (≈ 34.1 mM)
IC50 (Cytochrome P450 1A2): > 10000 nM
Cmax [16]: 0.45 µM
IC50 (Cytochrome P450 2C9): > 10000 nM
logD [8]: 2.1
IC50 [17]: 1 nM
solubility [18]: 2000 µg/mL (≈ 5.24 mM)
bioavailability [19]: 100%
AUC(0-t) [20]: 7.7 µM·h
IC50 [21]: 1 nM
Vd [22]: 3.9 L/kg
AUC(0-t) [23]: 0.91 µM·h
half-life [24]: 2.5 h
Cmax [25]: 4.9 µM
half-life [26]: 0.5 h
IC50 [27]: 10 nM
bioavailability [28]: 24%
IC50 [29]: 1 nM
Cmax [30]: 8.4 µM
IC50 (Cytochrome P450 2D6): > 10000 nM

SMILES: O=C(Nc1c[nH]nc1-c1nc2cc(CN3CCOCC3)ccc2[nH]1)NC1CCOCC1
IC50 (Aurora kinase A): 26 nM
IC50 [3]: 17000 nM
IC50 (Aurora kinase B): 10 nM
Activity (HCT-116 [5]): 1 µM

SMILES: Cc1cc(Nc2cc(N3CCN(C)CC3)nc(Sc3ccc(NC(=O)C4CC4)cc3)n2)n[nH]1 [TOZASERTIB]
IC50 (HCT-116 [7]): 24 nM
Activity (HCT-116 [5]): 0.03 µM

SMILES: O=C(Nc1c[nH]nc1-c1nc2cc(CN3CCOCC3)ccc2[nH]1)NC1CCCCC1
IC50 (Aurora kinase A): 5.7 nM
IC50 [3]: 2900 nM
IC50 (Aurora kinase B): 5.2 nM
IC50 [4]: 1200 nM
Activity (HCT-116 [5]): 0.1 µM

Continued, in another order:

IC50 (Aurora kinase A): 2.8 nM
IC50 [3]: 1100 nM
IC50 (Aurora kinase B): 10 nM
IC50 [4]: 230 nM
SMILES: O=C(Nc1ccccc1F)Nc1c[nH]nc1-c1nc2cc(CN3CCOCC3)ccc2[nH]1
Activity (HCT-116 [5]): 0.1 µM

IC50 (Aurora kinase A): 13 nM
IC50 [3]: 290 nM
IC50 (Aurora kinase B): 24 nM
IC50 [4]: 160 nM
SMILES: O=C(Nc1cccnc1)Nc1c[nH]nc1-c1nc2cc(CN3CCOCC3)ccc2[nH]1
Activity (HCT-116 [5]): 1 µM

IC50 (Aurora kinase A): 1.5 nM
logD [8]: 3.1
IC50 [3]: 290 nM
fraction unbound (in vitro): 0.169
IC50 (Aurora kinase B): 2.6 nM
IC50 [4]: 160 nM
SMILES: O=C(Nc1c[nH]nc1-c1nc2cc(CN3CCOCC3)ccc2[nH]1)Nc1c(F)cccc1F
IC50 (HCT-116 [7]): 17 nM
Activity (HCT-116 [5]): 0.03 µM

IC50 (Aurora kinase A): 3.5 nM
IC50 [3]: 340 nM
IC50 (Aurora kinase B): 15 nM
IC50 [4]: 140 nM
SMILES: O=C(Nc1c[nH]nc1-c1nc2cc(CN3CCOCC3)ccc2[nH]1)c1ccccc1
Activity (HCT-116 [5]): 0.1 µM

IC50 [3]: 230 nM
IC50 (Aurora kinase B): 180 nM
SMILES: O=C(Nc1c[nH]nc1-c1nc2ccccc2[nH]1)c1ccccc1
Activity (HCT-116 [5]): 3 µM
